Laboratory results as given in patent publication US10479803B2, “Bicyclic heteroarylaminoalkyl phenyl derivatives as PI3K inhibitors” (Incyte Corporation, priority 2014, dated 2019).

Tests used:
[1] = target: human JAK1 (Homo sapiens, UniProt P23458); assay: In vitro JAK kinase assay (Example J), JAK1; assay type: biochemical; conditions: Assay J at 1 mM ATP
[2] = target: human JAK2 (Homo sapiens (Human), UniProt O60674); assay: In vitro JAK kinase assay (Example J), JAK2; assay type: biochemical; conditions: ratio of IC50s, Assay J at 1 mM ATP
human JAK2, sequence (O60674 828-1132): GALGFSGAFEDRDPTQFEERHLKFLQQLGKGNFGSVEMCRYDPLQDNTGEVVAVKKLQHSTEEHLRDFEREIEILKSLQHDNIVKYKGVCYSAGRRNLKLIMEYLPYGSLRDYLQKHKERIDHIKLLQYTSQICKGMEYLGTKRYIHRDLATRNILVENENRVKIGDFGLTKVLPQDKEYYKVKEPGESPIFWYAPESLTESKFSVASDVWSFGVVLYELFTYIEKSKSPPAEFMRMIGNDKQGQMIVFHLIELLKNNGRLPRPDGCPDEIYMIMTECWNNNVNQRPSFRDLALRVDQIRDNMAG

Row | SMILES | IC50 [1] [nM] | JAK2/JAK1 [2]
1 | N#CCC(CN1CCN(C(=O)c2ccc(C#N)cc2F)CC1)n1ccc(-c2ncnc3[nH]ccc23)c1 (stereo not drawn) [Example 6, 4-[(4-{3-cyano-2-[3-(7H-pyrrolo[2,3-d]pyrimidin-4-yl)-1H-pyrrol-1-yl]propyl}piperazin-1-yl)carbonyl]-3-fluorobenzonitrile] | < 10 | >10
2 | C[C@@H](O)c1nc2cnc3ccsc3c2n1[C@H]1CC[C@H](CC#N)OC1 [#1, ((2R,5S)-5-{2-[(1R)-1-Hydroxyethyl]-1H-imidazo[4,5-d]thieno[3,2-b]pyridin-1-yl}tetrahydro-2H-pyran-2-yl)acetonitrile] |  | >10
